Test results: US4761415A, “Dopamine-β-hydroxylase inhibitors” (SmithKline Beckman Corporation, priority 1986, dated 1988)
Where a name gives a salt, the structure may show the parent alone.

Key:
DBH = details: cited from earlier work
[1] = inhibition of cytochrome P450-dependent mixed function oxidase catalyzed deethylation of ethoxycoumarin; assay type: in vitro ADME; details: read-out: P-450 IC50
Method: The compounds listed in Table I also were evaluated for their ability to inhibit cytochrome P450-dependent mixed function oxidase catalyzed deethylation of ethoxycoumarin by the procedure of […] and Poland, J. Pharmacol. Exp. Ther., 205, 596-605 (1978).

[2] = target: T1, dopamine-β-hydroxylase (DBH) (Bos taurus, UniProt P15101); experiment: biochemical; details: molar concentration at which DBH activity was halved
T1 sequence (P15101 1-610): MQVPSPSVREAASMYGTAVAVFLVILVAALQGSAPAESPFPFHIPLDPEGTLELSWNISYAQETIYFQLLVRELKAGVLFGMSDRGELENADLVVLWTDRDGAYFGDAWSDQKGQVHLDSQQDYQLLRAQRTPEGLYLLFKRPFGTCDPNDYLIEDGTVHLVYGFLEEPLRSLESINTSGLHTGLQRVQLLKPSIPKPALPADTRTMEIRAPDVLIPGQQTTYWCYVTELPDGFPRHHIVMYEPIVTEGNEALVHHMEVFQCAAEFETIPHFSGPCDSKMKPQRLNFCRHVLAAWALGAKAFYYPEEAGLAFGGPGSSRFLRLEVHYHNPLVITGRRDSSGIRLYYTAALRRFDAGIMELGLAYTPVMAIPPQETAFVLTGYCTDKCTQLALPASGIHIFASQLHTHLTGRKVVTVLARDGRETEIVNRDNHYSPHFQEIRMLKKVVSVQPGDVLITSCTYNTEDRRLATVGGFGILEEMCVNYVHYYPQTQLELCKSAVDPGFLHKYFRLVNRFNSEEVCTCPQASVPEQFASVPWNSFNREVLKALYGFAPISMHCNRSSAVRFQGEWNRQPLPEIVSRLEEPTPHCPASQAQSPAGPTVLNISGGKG
Method: J. J. Pisano, et al., Biochim. Biophys. Acta, 43, 566-568 (1960). Octopamine was assayed following sodium periodate oxidation to p-hydroxybenzaldehyde by measuring spectrophotometric absorbance at 330 nm.

[3] = tested on: spontaneously hypertensive rats; experiment: mean arterial blood pressure in spontaneously hypertensive rats; assay type: in vivo, rat; details: 50 mg/kg intraperitoneally; for time to significant blood pressure reduction following treatment / blood pressure reduction (in words): compared to vehicle-treated controls; for blood pressure reduction (in words): within 30 minutes; for maximal blood pressure reduction: monitored for 260 minutes, indwelling cannulae in tail arteries
Method: Further, spontaneously hypertensive rats were treated with a suspension or solution of 3-mercapto-4-benzyl-5-[(4-methyl-piperazinyl)methyl]-1,2,4-triazole or 3-mercapto-4-(3-fluorobenzyl)-5[(4-methyl-1-piperazinyl)methyl]-1,2,4-triazole at a dose of 50 mg/kg intraperitoneally, and mean arterial blood pressure was monitored for 260 minutes using indwelling cannulae in the tail arteries. […] The maximal blood pressure reductions were approximately 25 and 40 mmHg, respectively, for each of the administered compounds.

[4] = Teresawa et al., Japan. Cir. J. 35, 339 (1971); cited from earlier work
[5] = Ehrreich et al., 1976; cited from earlier work

| IC50 [1] [µM] | IC50 [2] [µM] | SMILES | DBH inhibition (in words, literature) (DBH) | other results |
| --- | --- | --- | --- | --- |
|  |  | O=C(O)c1ccc(CCCCCl)cn1 [5-(4-chlorobutyl) picolinic acid] | inhibit DBH |  |
| 12 | 1.2 | Fc1cc(F)cc(Cn2ccnc2S)c1 [1-(3,5-difluorobenzyl)-2-mercapto imidazole, reference compound] |  |  |
|  |  | CN1CCN(Cc2nnc(S)n2Cc2ccccc2)CC1 [Example 1, 3-Mercapto-4-benzyl-5-[(4-methyl-1-piperazinyl)methyl]-1,2,4-triazole] |  | time to significant blood pressure reduction following treatment [3]: ≤ 30 min; blood pressure reduction (in words) [3]: significant blood pressure reductions; maximal blood pressure reduction [3]: approximately 25 mmHg |
|  |  | O=C(O)c1ccc(CCC(Br)CBr)cn1 (stereo not shown) [5-(3,4-dibromobutyl)picolinic acid] | DBH inhibitors |  |
|  |  | CN(C)C(=S)SCc1ccc(C(=O)O)nc1 [5-(dimethyldithiocarbamoylmethyl)picolinic acid] | DBH inhibitors |  |
|  |  | CCCCc1ccc(C(=O)O)nc1 [Fusaric acid] |  | hepatotoxicity [4]: hepatotoxic |
| 375 | 60 | CN1CCN(Cc2nnc(S)n2Cc2cccc(F)c2)CC1 [Example 2, 3-Mercapto-4-(3-fluorobenzyl)-5-[(4-methyl-1-piperazinyl)methyl]-1,2,4-triazole] |  | time to significant blood pressure reduction following treatment [3]: ≤ 30 min; blood pressure reduction (in words) [3]: significant blood pressure reductions; maximal blood pressure reduction [3]: ~40 mmHg |
|  |  | NNCc1ccccc1 [benzylhydrazine] | apparently act as competitive inhibitors |  |
| 700 | 90 | CN1CCN(Cc2nnc(S)n2Cc2ccccc2)CC1 [3-mercapto-4-benzyl-5-[(4-methyl-1-piperazinyl)methyl]-1,2,4-triazole hydrochloride] |  |  |
| 350 | 50 | CN1CCN(Cc2nnc(S)n2Cc2cc(F)cc(F)c2)CC1 [Example 3, 3-Mercapto-4-(3,5-difluorobenzyl)-5-[(4-methyl-1-piperazinyl)methyl]-1,2,4-triazole] |  |  |
|  |  | NOCc1ccccc1 [Benzyloxyamine, benzyloxyamine] | apparently act as competitive inhibitors |  |
|  |  | CCCCc1ccc(C(N)=O)nc1 [Bupicomide, 5-(n-butyl)picolinamine] | DBH inhibitor | antihypertensive activity [5]: has antihypertensive activity |
